Values quoted from earlier work, collected in patent publication US12642772B2, “Triptolide formulations” (MINNEAMRITA THERAPEUTICS LLC, priority 2024, dated 2026).

SMILES: CC(C)[C@]12O[C@H]1[C@@H]1O[C@]13[C@]1(O[C@H]1C[C@H]1C4=C(CC[C@@]13C)C(=O)OC4)[C@@H]2O [triptolide, Triptolide]
- solubility in water: approximately 0.017 mg/mL
